Patent US5061794A, “Cephalosporin derivatives, and antibacterial agents” (priority 1986, dated 1991)
Like-named read-outs stand apart in the source and are kept apart here.

Assays:
[1] = test system: Ps. aeruginosa AK 109; assay: in vitro antibacterial activity, agar plate dilution method (MIC); type: cell-based, Pseudomonas aeruginosa; details: Pseudomonas aeruginosa, AK109, 16 h
Summary of the method: (§1)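 Agar plate dilution on Mueller Hinton agar containing graded compound levels, inoculated at 10^6 CFU/ml from overnight Mueller Hinton broth cultures. MIC (μg/ml) read after 16 h at 37°C.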

[2] = test system: Ps. aeruginosa AKR17; assay: as above; type: cell-based, Pseudomonas aeruginosa; details: Pseudomonas aeruginosa, read-out: Minimum Inhibitory Concentration (MIC)
Summary of the method: as §1

[3] = test system: Ps. aeruginosa IF03445; assay: as above; type: cell-based, Pseudomonas aeruginosa; details: Pseudomonas aeruginosa, IF03445, 16 h, read-out: Minimum Inhibitory Concentration (MIC), Ps. aeruginosa IF03445; 10^6 CFU/ml
Summary of the method: as §1

[4] = test system: Ps. cepacia 23; assay: as above; type: cell-based, Pseudomonas cepacia; details: Burkholderia cepacia, 16 h; Ps. cepacia 23; 10^6 CFU/ml; read-out: Minimum Inhibitory Concentration (MIC)
Summary of the method: as §1

[5] = test system: S. marcescens No. 16-2; assay: as above; type: cell-based; details: Serratia marcescens, NO.162, 16 h, read-out: Minimum Inhibitory Concentration (MIC), *S. marcescens No. 16-2, lactamase-producing strain; 10^6 CFU/ml
Summary of the method: as §1

[6] = test system: E. cloacae 963; assay: as above; type: cell-based; details: 10^6 CFU/ml
Summary of the method: as §1

[7] = test system: E. coli GN5482; assay: as above; type: cell-based; details: Escherichia coli, GN5482, 16 h
Summary of the method: as §1

[8] = test system: M. morganii GN5407; assay: as above; type: cell-based; details: Morganella morganii, GN5407, 16 h, read-out: Minimum Inhibitory Concentration (MIC), *M. morganii GN5407, lactamase-producing strain; 10^6 CFU/ml
Summary of the method: as §1

[9] = test system: K. pneumoniae PCI-602; assay: as above; type: cell-based; details: Klebsiella pneumoniae, PCI602, 16 h, read-out: Minimum Inhibitory Concentration (MIC), K. pneumoniae PCI-602; 10^6 CFU/ml
Summary of the method: as §1

[10] = test system: P. vulgaris No. 33; assay: as above; type: cell-based; details: Proteus vulgaris, NO.33, 16 h, read-out: Minimum Inhibitory Concentration (MIC), *P. vulgaris No. 33, lactamase-producing strain; 10^6 CFU/ml
Summary of the method: as §1

[11] = test system: K. oxytoca GN10650; assay: as above; type: cell-based; details: Klebsiella oxytoca, GN10650, 16 h, read-out: Minimum Inhibitory Concentration (MIC), *K. oxytoca GN10650, lactamase-producing strain; 10^6 CFU/ml
Summary of the method: as §1

[12] = test system: S. aureus 209P NIHJ-JC1; assay: as above; type: cell-based; details: Staphylococcus aureus, 16 h
Summary of the method: as §1

[13] = test system: S. marcescens IAM 1184; assay: as above; type: cell-based; details: Serratia marcescens, IAM1184, 16 h, read-out: Minimum Inhibitory Concentration (MIC)
Summary of the method: as §1

[14] = test system: P. vulgaris HX-19; assay: as above; type: cell-based; details: Proteus vulgaris, HX19, 16 h, P. vulgaris HX-19; 10^6 CFU/ml; read-out: Minimum Inhibitory Concentration (MIC)
Summary of the method: as §1

[15] = test system: E. cloacae Nek 39; assay: as above; type: cell-based; details: Enterobacter cloacae, NEK39, 16 h, read-out: Minimum Inhibitory Concentration (MIC), *E. cloacae Nek 39, lactamase-producing strain; 10^6 CFU/ml
Summary of the method: as §1

[16] = test system: K. pneumoniae No. 42; assay: as above; type: cell-based; details: Klebsiella pneumoniae, NO.42, 16 h, read-out: Minimum Inhibitory Concentration (MIC), *K. pneumoniae No. 42, lactamase-producing strain; 10^6 CFU/ml
Summary of the method: as §1

[17] = test system: E. coli NIHJ JC2; assay: as above; type: cell-based; details: Escherichia coli, NIHJJC2, 16 h, read-out: Minimum Inhibitory Concentration (MIC), E. coli NIHJ JC2, 10^6 CFU/ml, 37° C.
Summary of the method: as §1

[18] = test system: A. calcoaceticus No. 4; assay: as above; type: cell-based, Acinetobacter calcoaceticus; details: Acinetobacter calcoaceticus, NO.4, 16 h, 10^6 CFU/ml
Summary of the method: as §1

[19] = test system: E. coli CSH2 (RK1); assay: microbe, parasite or virus in culture; type: cell-based; details: Escherichia coli, 16 h, read-out: Minimum Inhibitory Concentration (MIC), *E. coli CSH2 (RK1), lactamase-producing strain; 10^6 CFU/ml
Summary of the method: as §1

[20] = test system: E. coli CSH(RE45); assay: microbe, parasite or virus in culture; type: cell-based; details: Escherichia coli, 16 h, read-out: Minimum Inhibitory Concentration (MIC), *E. coli CSH(RE45), lactamase-producing strain; 10^6 CFU/ml
Summary of the method: as §1

[21] = read-out: Minimum Inhibitory Concentration (MIC)
[22] = 16 h, Ps. aeruginosa AKR17, 10^6 CFU/ml
[23] = Enterobacter cloacae, 963, 16 h, read-out: Minimum Inhibitory Concentration (MIC), E. cloacae 963
[24] = read-out: Minimum Inhibitory Concentration (MIC), S. aureus 209P NIHJ-JC1, 10^6 CFU/ml, 37° C., 16 hours
[25] = read-out: Minimum Inhibitory Concentration (MIC), A. calcoaceticus No. 4
[26] = read-out: Minimum Inhibitory Concentration (MIC), Ps. aeruginosa AK 109, 10^6 CFU/ml
[27] = S. marcescens IAM 1184, 10^6 CFU/ml

SMILES | MIC [2, 22] [µg/mL] | MIC [3] [µg/mL] | MIC [4] [µg/mL] | MIC [5] [µg/mL] | MIC [6, 23] [µg/mL] | MIC [7, 21] [µg/mL] | MIC [8] [µg/mL] | MIC [9] [µg/mL] | MIC [10] [µg/mL] | MIC [11] [µg/mL] | MIC [12, 24] [µg/mL] | MIC [14] [µg/mL] | MIC [15] [µg/mL] | MIC [16] [µg/mL] | MIC [17] [µg/mL] | MIC [18, 25] [µg/mL] | MIC [19] [µg/mL] | MIC [20] [µg/mL] | MIC [1, 26] [µg/mL] | MIC [13, 27] [µg/mL] | other results
CCO/N=C(\C(=O)N[C@@H]1C(=O)N2C(C(=O)O)=C(CSc3nnc(-c4ccc(O)c(O)c4)o3)CS[C@H]12)c1csc(N)n1 [Ex. 5, sodium 7β-[2-(2-aminothiazol-4-yl)-2-ethoxyiminoacetamido]-3-[5-(3,4-dihydroxyphenyl)-1,3,4-oxadiazol-2-yl]thiomethyl-3-cephem-4-carboxylate] | > 100 | 0.39 | < 0.006 | 0.78 | 0.0125 | 0.39 | 0.025 | < 0.006 | 0.025 | 0.78 | 0.78 | < 0.006 | 0.1 | 0.05 | 0.05 | 0.1 | 0.0125 | 0.0125 |  |  | MIC [1, 21]: 0.39 µg/mL; MIC [13]: 0.0125 µg/mL
C=CCON=C(C(=O)NC1C(=O)N2C(C(=O)O)=C(CSc3nc(-c4ccc(O)c(O)c4)cs3)CSC12)c1csc(N)n1 (stereo not drawn) [Ex. 42, sodium 78-[2-allyloxyimino-2-(2-aminothiazol-4-yl)acetamido]-3-[4-(3,4-dihydroxyphenyl)-thiazol-2-yl]thiomethyl-3-cephem-4-carboxylate] | 100 | 0.78 | 0.1 | 6.25 | 0.05 |  | 0.05 | < 0.006 | 0.05 | 3.12 | 0.78 | 0.0125 | 0.39 | 0.2 | 0.2 | 0.39 | 0.025 | 0.025 | 0.78 | 0.05 | MIC ([7]; read-out: Minimum Inhibitory Concentration (MIC), *E. coli GN5482, lactamase-producing strain, 10^6 CFU/ml): 0.78 µg/mL
Nc1nc(C(=NOCC(=O)O)C(=O)NC2C(=O)N3C(C(=O)O)=C(CSc4nc(-c5ccc(O)c(O)c5)cs4)CSC23)cs1 (stereo not drawn) [Ex. 43, disodium 7β-[2-(2-aminothiazol-4-yl)-2-carboxylatemethoxyimincacetamido]-3-[4-(3,4-dihydroxyphenyl)thiazol-2-yl]thiomethvl-3-cephem-4-carboxylate] |  | 0.78 | < 0.006 | 1.56 |  | 0.39 | 0.05 | < 0.006 | 0.05 | 0.39 |  | < 0.006 | 0.2 | 0.1 | 0.2 |  | 0.025 | 0.025 | 0.78 | 0.05 | MIC ([2]; AKR17, 16 h): 12.5 µg/mL; MIC ([6]; Enterobacter cloacae, 16 h, E. cloacae 963, read-out: Minimum Inhibitory Concentration (MIC)): 0.1 µg/mL; MIC [12, 21]: 12.5 µg/mL; MIC ([18]; A. calcoaceticus No. 4, read-out: Minimum Inhibitory Concentration (MIC)): 0.2 µg/mL
